For three molecules, IC50 results are on record in ChEMBL document CHEMBL5728229, “Halo-substituted piperidines as orexin receptor modulators” (2021).

The target in assay [1] is T1, Orexin/Hypocretin receptor type 1 (Homo sapiens, UniProt O43613).
T1 sequence (O43613 whole entry): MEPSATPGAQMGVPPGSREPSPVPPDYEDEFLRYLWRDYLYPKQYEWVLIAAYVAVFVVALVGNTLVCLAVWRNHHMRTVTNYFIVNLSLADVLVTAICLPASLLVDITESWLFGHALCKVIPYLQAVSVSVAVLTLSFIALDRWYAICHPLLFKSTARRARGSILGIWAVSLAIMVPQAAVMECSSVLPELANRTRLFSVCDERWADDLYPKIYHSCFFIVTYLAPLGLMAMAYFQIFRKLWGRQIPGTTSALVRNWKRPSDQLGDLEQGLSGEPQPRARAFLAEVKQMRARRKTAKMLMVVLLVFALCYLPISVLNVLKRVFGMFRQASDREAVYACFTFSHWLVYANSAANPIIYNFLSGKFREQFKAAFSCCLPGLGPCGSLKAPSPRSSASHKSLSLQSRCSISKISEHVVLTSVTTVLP
The assay is described as follows: (§1) Orexin Receptor Cell-Based Functional Assay: Measurement of [Ca2+]i using a FLIPR: CHO—OX1 or CHO—OX2 cells were seeded into black-walled clear-base 384-well plates (Corning, catalog #3712) at a density of 20,000 cells per well in F12-K medium supplemented with 10% FBS and then incubated in a 5% CO2, 37° C. incubator overnight to reach 90% confluency. The cells were incubated with equal volume of calcium 6 loading buffer (Molecular Devices, Inc.) containing 2.5 mM probenecid at 37° C. for 2 h, followed by test compounds (dose-range 0.1 nM-10 μM) for another 30 min. The plates were then placed into a FLIPR (Molecular Devices, Inc.) to monitor fluorescence (λ excitation 488 nm, λ emission 540 nm) before and after the addition of EC90 of [OX].

Another assay concerns the target T2, Orexin receptor type 2 (Homo sapiens, UniProt O43614).
T2 sequence (O43614 whole entry): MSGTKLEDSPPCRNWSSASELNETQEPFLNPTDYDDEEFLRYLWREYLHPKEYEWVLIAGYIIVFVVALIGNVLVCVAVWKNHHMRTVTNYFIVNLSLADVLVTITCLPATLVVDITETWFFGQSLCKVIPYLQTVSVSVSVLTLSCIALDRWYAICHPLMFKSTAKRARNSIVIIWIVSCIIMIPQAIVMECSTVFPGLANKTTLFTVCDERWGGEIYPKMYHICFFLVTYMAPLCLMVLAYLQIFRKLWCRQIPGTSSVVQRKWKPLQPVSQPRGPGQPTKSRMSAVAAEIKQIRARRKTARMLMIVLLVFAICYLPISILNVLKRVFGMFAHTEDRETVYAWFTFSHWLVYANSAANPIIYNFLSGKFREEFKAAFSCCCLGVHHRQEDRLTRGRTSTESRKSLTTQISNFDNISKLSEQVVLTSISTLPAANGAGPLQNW
Described as §1.

By IC50 is commonly meant the concentration needed to halve the response being measured. Take `C[C@@H]1CC(F)(F)CN(C(=O)c2nn(C)cc2-c2ncc(F)cn2)[C@@H]1COc1cnc(C(F)(F)F)cn1`: in assay [1], the IC50 was determined as 1 µM.
For the molecule `C[C@@H]1CC(F)(F)CN(C(=O)c2nn(C)cc2-c2ccccc2)[C@@H]1COc1ccc(C(F)(F)F)cn1`, the IC50 is 0.008 µM in assay [1] and greater than 5 µM on Orexin receptor type 2.
With `C[C@@H]1CC(F)(F)CN(C(=O)c2nn(C)cc2-c2ncc(F)cn2)[C@@H]1COc1ncc(C(F)(F)F)cc1F`, the IC50 in assay [1] came to 1 µM.
